PMC9471048, “The signaling and selectivity of α‐adrenoceptor agonists for the human α2A, α2B and α2C‐adrenoceptors and comparison with human α1 and β‐adrenoceptors” (Pharmacology Research & Perspectives, 2022)
pIC50: −log10 of the molar value. Where two headings read alike, the source gives them in different places.

What was measured:
human α2A‐adrenoceptor [1] = molecular target: T1, human α2A‐adrenoceptor (Homo sapiens, UniProt P08913); experiment: ERK1/2‐phosphorylation in CHO‐α2A cells; format: cell-based; design: expressed in transfected cells; host or cells: CHO-K1 with CRE-SPAP reporter
T1 sequence (P08913 1-465): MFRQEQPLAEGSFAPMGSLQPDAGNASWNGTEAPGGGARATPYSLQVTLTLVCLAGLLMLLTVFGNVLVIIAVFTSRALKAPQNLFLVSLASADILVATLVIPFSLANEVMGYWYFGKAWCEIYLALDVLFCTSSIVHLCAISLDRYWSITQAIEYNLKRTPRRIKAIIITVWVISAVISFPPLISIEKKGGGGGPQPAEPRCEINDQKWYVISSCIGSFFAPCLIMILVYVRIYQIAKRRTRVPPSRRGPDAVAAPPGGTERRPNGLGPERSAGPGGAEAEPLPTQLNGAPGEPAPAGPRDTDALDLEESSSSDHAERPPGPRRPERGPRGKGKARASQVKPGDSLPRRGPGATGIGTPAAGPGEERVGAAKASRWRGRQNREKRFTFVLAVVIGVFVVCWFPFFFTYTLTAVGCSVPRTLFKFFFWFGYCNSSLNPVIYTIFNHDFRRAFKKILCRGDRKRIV

human α2C‐adrenoceptor [2] = molecular target: T2, human α2C‐adrenoceptor (Homo sapiens, UniProt P18825); experiment: ERK1/2‐phosphorylation in CHO‐α2C cells; format: cell-based; design: expressed in transfected cells; host or cells: CHO-K1 with CRE-SPAP reporter; details: for Log EC50, ERK1/2‐phosphorylation: given as negative log EC50, mean ± SEM
T2 sequence (P18825 1-462): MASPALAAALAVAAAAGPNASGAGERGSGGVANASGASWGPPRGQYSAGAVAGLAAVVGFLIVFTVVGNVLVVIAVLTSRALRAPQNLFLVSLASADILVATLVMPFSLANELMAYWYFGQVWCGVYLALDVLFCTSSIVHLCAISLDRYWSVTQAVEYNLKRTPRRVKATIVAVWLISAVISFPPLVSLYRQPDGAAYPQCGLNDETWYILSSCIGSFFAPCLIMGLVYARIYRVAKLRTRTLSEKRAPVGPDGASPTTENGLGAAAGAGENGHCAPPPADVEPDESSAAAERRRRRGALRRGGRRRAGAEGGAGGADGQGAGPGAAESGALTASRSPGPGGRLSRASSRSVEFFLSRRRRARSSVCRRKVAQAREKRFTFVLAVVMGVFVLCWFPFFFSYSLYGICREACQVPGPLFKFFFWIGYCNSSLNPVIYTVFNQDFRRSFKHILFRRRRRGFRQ

human α2A‐adrenoceptor [3] = molecular target: T1, human α2A‐adrenoceptor
human α2C‐adrenoceptor [4] = molecular target: T2, human α2C‐adrenoceptor
human α2C‐adrenoceptor [5] = molecular target: T2, human α2C‐adrenoceptor; experiment: 3H‐rauwolscine whole cell binding in CHO‐α2C cells; design: expressed in transfected cells; host or cells: CHO-K1 with CRE-SPAP reporter
human α2A‐adrenoceptor [6] = molecular target: T1, human α2A‐adrenoceptor; experiment: 3H‐rauwolscine whole cell binding in CHO‐α2A cells; design: expressed in transfected cells; host or cells: CHO-K1 with CRE-SPAP reporter
[7] = CHO‐α2C cells, maximum response compared to 10 μM PDBu, mean ± SEM
[8] = CHO‐α2C cells, % inhibition from the 3 μM forskolin control, mean ± SEM
[9] = CHO‐α2C cells, CRE‐SPAP production in the absence of forskolin
[10] = CHO‐α2C cells, 3H‐rauwolscine whole cell binding, given as negative log KD, mean only (SEM in Table 4), read-out: Log KD (converted)
[11] = CHO‐α2C cells, inhibition of 3 μM forskolin‐stimulated CRE‐SPAP production, given as negative log IC50, mean ± SEM
[12] = CHO‐α2C cells, 3H‐rauwolscine whole cell binding, given as negative log KD, mean only (SEM in Table 4)

COc1ccc(OC)c(C(O)CNC(=O)CN)c1 (stereo not drawn) [Midodrine]
% 10 μM PDBu, ERK1/2‐phosphorylation, response at 100 μM agonist (human α2A‐adrenoceptor [1]; CHO‐α2A, response at 100 μM): 101.0 ± 15.5%
% 10 μM PDBu, ERK1/2‐phosphorylation (human α2C‐adrenoceptor [2]; CHO‐α2C cells, response at 100 μM ligand (no EC50 given) compared to 10 μM PDBu): 80.9 ± 15.6%

NC[C@H](O)c1ccc(O)c(O)c1 [Noradrenaline]
% 3 μM forskolin, CRE‐SPAP (without forskolin) (human α2A‐adrenoceptor [3]; CHO‐α2A (cell line 1), maximum response compared to 3 μM forskolin): 171.5 ± 11.1%
% 10 μM PDBu, ERK1/2‐phosphorylation (human α2A‐adrenoceptor [1]; CHO‐α2A, maximum response compared to 10 μM PDBu): 121.9 ± 6.3%
% 10 μM PDBu, ERK1/2‐phosphorylation (human α2C‐adrenoceptor [2]; [7]): 142.3 ± 10.7%
pIC50 (human α2C‐adrenoceptor [4]): 6.51
% inhibition, CRE‐SPAP (with forskolin) (human α2C‐adrenoceptor [4]; [8]): 83.0 ± 3.1%
Log EC50 (Gs), CRE‐SPAP (without forskolin) (human α2C‐adrenoceptor [4]; [9]): No response
Kd (human α2C‐adrenoceptor [5]; 3H‐rauwolscine whole cell binding, living cells, negative log KD, mean ± SEM, read-out: Log KD, CHO‐α2C (converted)): 32.4 µM
Kd (human α2C‐adrenoceptor [5]; [10]): 32.4 µM

C1=C(c2cnc[nH]2)c2ccsc2CC1 [RWJ52353]
% 10 μM PDBu, ERK1/2‐phosphorylation (human α2C‐adrenoceptor [2]; [7]): 143.5 ± 14.0%
Log EC50, ERK1/2‐phosphorylation (human α2C‐adrenoceptor [2]; CHO‐α2C cells): −7.74 ± 0.09
Log efficacy ratio (KD/IC50) (human α2C‐adrenoceptor [4]): 1.80
% inhibition, CRE‐SPAP (with forskolin) (human α2C‐adrenoceptor [4]; [8]): 76.5 ± 5.6%
Log EC50 (Gs), CRE‐SPAP (without forskolin) (human α2C‐adrenoceptor [4]; [9]): No response
Log IC50 (Gi), CRE‐SPAP (with forskolin) (human α2C‐adrenoceptor [4]; [11]): −6.47 ± 0.10
Log KD (apparent), CHO‐α2C (human α2C‐adrenoceptor [5]; 3H‐rauwolscine whole cell binding, ^app: apparent KD, IC50 from extrapolated curve as not all specific binding was inhibited): −4.67 ± 0.08^app
Log KD (human α2C‐adrenoceptor [5]; [12]): −4.67

CNC[C@H](O)c1cccc(O)c1 [R‐phenylephrine]
% 10 μM PDBu, ERK1/2‐phosphorylation (human α2C‐adrenoceptor [2]): 157.0 ± 15.4%
% inhibition, CRE‐SPAP (with forskolin) (human α2C‐adrenoceptor [4]): 77.5 ± 3.4%

CCc1cccc(CC)c1NC1=NCCN1 [ST‐91]
% 10 μM PDBu, ERK1/2‐phosphorylation (human α2C‐adrenoceptor [2]; [7]): 154.0 ± 15.0%
Log EC50, ERK1/2‐phosphorylation (human α2C‐adrenoceptor [2]; CHO‐α2C cells): −7.93 ± 0.17
Log efficacy ratio (KD/IC50) (human α2C‐adrenoceptor [4]): 1.28
% inhibition, CRE‐SPAP (with forskolin) (human α2C‐adrenoceptor [4]; [8]): 76.5 ± 4.4%
Log EC50 (Gs), CRE‐SPAP (without forskolin) (human α2C‐adrenoceptor [4]; [9]): No response
Log IC50 (Gi), CRE‐SPAP (with forskolin) (human α2C‐adrenoceptor [4]; [11]): −7.46 ± 0.09
Log KD (human α2C‐adrenoceptor [5]; [12]): −6.18

OCc1cc(C(O)CNCCCCCCOCCCCc2ccccc2)ccc1O (stereo not drawn) [Salmeterol]
Log EC50 (Gs), CRE‐SPAP (without forskolin) (human α2A‐adrenoceptor [3]; CHO‐α2A (cell line 1), absence of forskolin): No response
Log IC50 (Gi), CRE‐SPAP (with forskolin) (human α2A‐adrenoceptor [3]; CHO‐α2A (cell line 1, 5830 fmol/mg protein), 3 μM forskolin): No response
Log IC50 (Gi), CRE‐SPAP (with forskolin) (human α2C‐adrenoceptor [4]): No response
Log EC50 (Gs), CRE‐SPAP (without forskolin) (human α2C‐adrenoceptor [4]; [9]): No response
Kd (human α2C‐adrenoceptor [5]; [10]): 5.25 µM
Kd (human α2A‐adrenoceptor [6]; read-out: Log KD (binding) (converted)): 17.4 µM

Cc1sc(C)c2c1CCC=C2c1cnc[nH]1.O=C(O)/C=C\C(=O)O [T‐CG 1000]
% 10 μM PDBu, ERK1/2‐phosphorylation (human α2C‐adrenoceptor [2]; [7]): 87.5 ± 14.2%
Log EC50, ERK1/2‐phosphorylation (human α2C‐adrenoceptor [2]; CHO‐α2C cells): −7.05 ± 0.14
Log efficacy ratio (KD/IC50) (human α2C‐adrenoceptor [4]): −0.63
% inhibition, CRE‐SPAP (with forskolin) (human α2C‐adrenoceptor [4]; [8]): 50.2 ± 5.1%
Log EC50 (Gs), CRE‐SPAP (without forskolin) (human α2C‐adrenoceptor [4]; [9]): No response
Log IC50 (Gi), CRE‐SPAP (with forskolin) (human α2C‐adrenoceptor [4]; [11]): −6.12 ± 0.05
Log KD (human α2C‐adrenoceptor [5]; [12]): −6.75

COC(=O)[C@@H]1[C@H]2C[C@H]3c4[nH]c5ccccc5c4CCN3C[C@@H]2CC[C@@H]1O [yohimbine]
Schild slope (Gi), dexmedetomidine as agonist (human α2A‐adrenoceptor [3]): 1.11 ± 0.07
Schild slope, inhibitory (Gi) component (human α2A‐adrenoceptor [3]): 1.00 ± 0.08
Schild slope, stimulatory (Gs) component (human α2A‐adrenoceptor [3]): 0.92 ± 0.11

CC(N)C(O)c1ccc(O)c(O)c1 (stereo not drawn) [α‐methylnorepinephrine]
% 3 μM forskolin, CRE‐SPAP (without forskolin) (human α2A‐adrenoceptor [3]): 171.1 ± 4.3%
Log EC50 (Gs), CRE‐SPAP (with forskolin) (human α2A‐adrenoceptor [3]): −5.31 ± 0.05
Log EC50 (Gs), CRE‐SPAP (without forskolin) (human α2A‐adrenoceptor [3]): −5.29 ± 0.02
Log IC50 (Gi), CRE‐SPAP (with forskolin) (human α2A‐adrenoceptor [3]): −6.47 ± 0.05
% 10 μM PDBu, ERK1/2‐phosphorylation (human α2A‐adrenoceptor [1]): 142.6 ± 22.3%
% inhibition, CRE‐SPAP (with forskolin) (human α2C‐adrenoceptor [4]): 85.2 ± 3.0%
Log EC50 (Gs), CRE‐SPAP (without forskolin) (human α2C‐adrenoceptor [4]): No response
Log IC50 (Gi), CRE‐SPAP (with forskolin) (human α2C‐adrenoceptor [4]): −6.52 ± 0.12
Log KD (human α2C‐adrenoceptor [5]): −5.16
Log KD (apparent), CHO‐α2A (human α2A‐adrenoceptor [6]): −3.69 ± 0.04^app
Log KD (binding) (human α2A‐adrenoceptor [6]): −3.69
